In brackets after ≈: the same amount, converted by molar mass. Activity calls are given as the source filed them. The rule behind the calls is not given here.

Usually IC50 stands for the concentration needed to halve the response being measured. In general, GI50 refers to the concentration at which growth is held to half of that of the control.

Assay [1] concerns Neisseria gonorrhoeae. Description: Antibacterial activity against Neisseria gonorrhoeae by disk susceptibility test. It counts as functional.
For assay [2], the system named is P388. Briefly: Cytotoxicity against mouse P388 cells. It counts as functional. The following applies: read-out: ED50 (the source's name).
The test system of assay [3] is Enterobacter cloacae. Description: Antibacterial activity against Enterobacter cloacae at 100 ug/disk by disk susceptibility test.
The test system of assay [4] is Micrococcus luteus. Briefly: Antibacterial activity against Micrococcus luteus at 100 ug/disk by disk susceptibility test.
Assay [5] relates to Staphylococcus aureus. Briefly: Antibacterial activity against Staphylococcus aureus at 100 ug/disk by disk susceptibility test.
The nature of assay [6]: Inhibition of bovine tubulin polymerization. On the set-up: species or system Bos taurus.
For assay [7], the system named is Cryptococcus neoformans. Description: Antifungal activity against Cryptococcus neoformans at 100 ug/disk by disk susceptibility test.
For assay [8], the system named is Enterococcus faecalis. Description: Antibacterial activity against Enterococcus faecalis at 100 ug/disk by disk susceptibility test.
In assay [9] the test system is Streptococcus pneumoniae. Description: Antibacterial activity against Streptococcus pneumoniae at 100 ug/disk by disk susceptibility test.
The subject of assay [10] is Escherichia coli. Description: Antibacterial activity against Escherichia coli at 100 ug/disk by disk susceptibility test.
The subject of assay [11] is Stenotrophomonas maltophilia. Description: Antibacterial activity against Stenotrophomonas maltophilia at 100 ug/disk by disk susceptibility test.
Assay [12] concerns Candida albicans. Description: Antifungal activity against Candida albicans at 100 ug/disk by disk susceptibility test.
Assay [13] deals with FaDu. Description: Cytotoxicity against human FaDu cells. The format is functional.
Assay [14] concerns Neisseria gonorrhoeae. Briefly: Antibacterial activity against Neisseria gonorrhoeae at 100 ug/disk by disk susceptibility test.
For assay [15], the system named is Staphylococcus aureus. Description: Antibacterial activity against Staphylococcus aureus by disk susceptibility test. The format is functional.
The species named for assay [16] is Bos taurus. Briefly: Displacement of [3H]colchicine from bovine tubulin at inhibitor to colchicine ratio of 0.2:1. Details: scale not given: the % may be the effect or the level left.
For assay [17], the species on record is Bos taurus. Briefly: Displacement of [3H]colchicine from bovine tubulin at inhibitor to colchicine ratio of 1:1. On the set-up: scale not given: the % may be the effect or the level left. For orientation: Displacement assays read how much labelled ligand stays bound in the presence of the test substance.
Assay [18] concerns L1210. Briefly: Cytotoxicity against mouse L1210 cells. The following applies: read-out: ED50 (the source's name). It counts as functional.
The test system of assay [19] is Cryptococcus neoformans. Description: Antifungal activity against Cryptococcus neoformans by disk susceptibility test. It counts as functional.
Assay [20] has as its system Candida albicans. Briefly: Antifungal activity against Candida albicans by disk susceptibility test. It counts as functional.
Assay [21] concerns Streptococcus pneumoniae. Briefly: Antibacterial activity against Streptococcus pneumoniae by disk susceptibility test. It counts as functional.
Assay [22] deals with Stenotrophomonas maltophilia. Description: Antibacterial activity against Stenotrophomonas maltophilia by disk susceptibility test. The format is functional.

In the case of `COc1ccc(CCc2cc(OC)c(OC)c(OC)c2)c(O)c1O`, the MIC in [1] was found to be 12.5 µg. Also, in [2], the EC50 stood at 1.7 µg/mL (≈ 5.08 µM).

On to `COc1ccc([C@@H](O)[C@H](O)c2cc(OC)c(OC)c(OC)c2)c(O)c1O`, for which the outcome in [3], in assay [4], in assay [5], in assay [7], in [8] and in [9] was inactive. Further, the outcome in assay [10], in [11], in [12] and in assay [14] was inactive. Besides, it took 20 µM to reach half-maximal inhibition in assay [6] (IC50). Further, halving of growth in [13] (GI50) required 4.9 µg/mL (≈ 13.4 µM). The EC50 in assay [2] was determined as 3.9 µg/mL (≈ 10.6 µM).

The compound `COc1ccc(/C=C\c2cc(OC)c(OC)c(OC)c2)c(O)c1O` [COMBRETASTATIN A-1] had a 50% inhibitory concentration (IC50) in [6] of 1.1 µM. For the same compound, the MIC turned out to be 50 µg in [15] and 25 µg in assay [1]. Further, the Activity is 89% in assay [16] and 99.6% in assay [17]. In addition, the GI50 in [13] is 0.23 µg/mL (≈ 0.692 µM). In assay [2], the EC50 came to 0.2 µg/mL (≈ 0.602 µM).

In the case of `COc1ccc(/C=C\c2cc(OC)c(OC)c(OC)c2)cc1O` [COMBRETASTATIN A4], the MIC in assay [1] worked out at 25 µg. Further, the EC50 came to 0.007 µM in assay [18] and 0.0003 µg/mL (≈ 0.000948 µM) in assay [2]. Besides, in assay [13], the GI50 amounted to 0.0007 µg/mL (≈ 0.00221 µM).

With `COc1cc(/C=C\c2ccc(OC)c(OP(=O)([O-])[O-])c2OP(=O)([O-])[O-])cc(OC)c1OC.[Na+].[Na+].[Na+].[Na+]`, in assay [2], the EC50 was under 0.01 µg/mL.

On to `COc1ccc([C@H](O)[C@@H](O)c2cc(OC)c(OC)c(OC)c2)c(O)c1O`, for which, in assay [6], the IC50 turned out to be 10 µM. The compound also had an MIC in assay [1] of 25 µg. Besides, in assay [13], the GI50 is over 10 µg/mL. Moreover, in assay [2], the EC50 was 2.9 µg/mL (≈ 7.92 µM).

As to `COc1ccc(/C=C/c2cc(OC)c(OC)c(OC)c2)cc1O`, the outcome in assay [3], in assay [4], in assay [5], in [7], in assay [8] and in [9] was inactive. For the same compound, the outcome in assay [10], in assay [11], in assay [12] and in assay [14] was inactive.

On to `COc1ccc(/C=C/c2cc(OC)c(OC)c(OC)c2)c(O)c1O`, for which the MIC is 50 µg in assay [19]; 50 µg in [20]; 50 µg in [21]; 50 µg in assay [15]; 50 µg in assay [22]; 6.25 µg in [1].

Turning to `COc1cc(CCc2ccc(OC)c(OP(=O)([O-])[O-])c2OP(=O)([O-])[O-])cc(OC)c1OC.[Na+].[Na+].[Na+].[Na+]`, the EC50 in [2] was 0.3 µg/mL.

Consider `COc1ccc([C@H](O)[C@@H](O)c2cc(OC)c(OC)c(OC)c2)cc1O`, for which, in assay [6], inhibition was half-maximal at 14 µM (IC50). Besides, the MIC in assay [21] amounted to 25 µg. The GI50 in assay [13] stood at 0.6 µg/mL (≈ 1.71 µM). In addition, in [2], the EC50 is 2 µg/mL (≈ 5.71 µM).

`COc1ccc(/C=C\c2cc(OC)c(OC)c(OC)c2)cc1OP(=O)([O-])[O-].[Na+].[Na+]` [FOSBRETABULIN DISODIUM] showed an MIC in assay [1] of 50 µg. In addition, the EC50 in assay [2] came to 0.0004 µg/mL.

As to `COc1ccc([C@@H](O)[C@H](O)c2cc(OC)c(OC)c(OC)c2)cc1O`, in assay [6], the IC50 was over 40 µM. The compound further showed an MIC in assay [21] of 50 µg. In assay [13], this compound gave a 50% growth inhibitory concentration (GI50) of 2.1 µg/mL (≈ 5.99 µM). In assay [2], the EC50 was found to be 19 µg/mL (≈ 54.2 µM).

The values are drawn from ChEMBL document CHEMBL1142644, “Antineoplastic agents 440. Asymmetric synthesis and evaluation of the combretastatin A-1 SAR probes (1S,2S)- and (1R,2R)-1, 2-dihydroxy- 1-(2',3'-dihydroxy-4'-methoxyphenyl)-2-(3' ',4' ',5' '-trimethoxyphenyl)-ethane” (J Nat Prod, 2000).
